Measured values taken from EP0526540B1, “USE OF 5-HT4-RECEPTOR ANTAGONISTS IN THE TREATMENT OF ATRIAL FIBRILLATION, INCLUDING THE PREVENTION OF STROKE” (SMITH KLINE & FRENCH LABORATORIES LIMITED, priority 1990, dated 1991).

How the values were obtained:
cardiac 5-HT4 receptors [1] = molecular target: cardiac 5-HT4 receptors (Sus scrofa, UniProt Q6Q253); assay: Piglet spontaneous beating atria screen (right atrium, positive chronotropic effect, antagonism of 5-HT); assay type: cell-based, Porcine
Protocol: Method (See A. J. Kaumann, 1990, Naunyn-Schmiedeberg's Arch. Pharmacol 342, 619-622).
Piglets of either sex, 2 to 5 days old, were obtained from local farms. Usually 2 piglets were from the same litter. The piglets were anaesthetised with halothene; their hearts rapidly removed and washed free of blood with warm solution containing (mM):120 Na^+, 5 K^+, 2.25 Ca^2+, 0.5 Mg^2+, 98.5 Cl^-, 0.5 SO4^2-, 34 HCO3^-, 1 HPO4^2-, 0.04 EDTA, deionised and double distilled water in glass, equilibrated with 95% O2 and 5% CO2.
After dissection of the right atrium in warm solution, the tissue was set up in an apparatus with a 50 ml. bath (Blinks, 1965 J. Appl. Physiol. 20, 755-757), containing the solution described above supplemented with (mM):15 Na^+, 5 fumarate, 5 pyruvate, 5 L-glutamate, 10 glucose. Experiments were carried out at 37°C. […] The tissue was attached to a Swema SG4-45 strain gauge transducer by means of a stainless steel wire and force recorded on a Watanabe polygraph. […]
A single cumulative concentration-effect curve was determined by the sequential addition of 5-HT or other agonists to the bath in amounts that increased the total concentration in steps of ½ log unit. […] The time of incubation with an antagonist was at least 1 hr before a concentration-effect curve for an agonist was determined.

cardiac 5-HT4 receptors [2] = molecular target: T1, cardiac 5-HT4 receptors (Homo sapiens, UniProt Q13639); assay: Human right atrial preparations (force), blocking potency of antagonists; assay type: cell-based; settings: Granisetron tested at 20 µM
T1 construct: from tissue; host or cells: human right atrial preparation
T1 sequence (Q13639 whole entry): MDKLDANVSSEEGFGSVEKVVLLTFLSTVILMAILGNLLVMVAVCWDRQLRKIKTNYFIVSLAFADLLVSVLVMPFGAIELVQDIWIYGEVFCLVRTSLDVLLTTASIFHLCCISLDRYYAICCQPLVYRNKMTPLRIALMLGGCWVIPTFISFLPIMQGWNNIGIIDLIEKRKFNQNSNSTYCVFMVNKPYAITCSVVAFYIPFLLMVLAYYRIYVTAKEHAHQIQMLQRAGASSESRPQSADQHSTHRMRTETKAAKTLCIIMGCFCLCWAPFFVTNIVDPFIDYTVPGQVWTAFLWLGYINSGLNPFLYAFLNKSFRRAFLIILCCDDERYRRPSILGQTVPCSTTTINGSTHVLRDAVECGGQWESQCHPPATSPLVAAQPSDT

Chain of cardiac 5-HT4 receptors (Sus scrofa, UniProt Q6Q253) (Q6Q253 1-402): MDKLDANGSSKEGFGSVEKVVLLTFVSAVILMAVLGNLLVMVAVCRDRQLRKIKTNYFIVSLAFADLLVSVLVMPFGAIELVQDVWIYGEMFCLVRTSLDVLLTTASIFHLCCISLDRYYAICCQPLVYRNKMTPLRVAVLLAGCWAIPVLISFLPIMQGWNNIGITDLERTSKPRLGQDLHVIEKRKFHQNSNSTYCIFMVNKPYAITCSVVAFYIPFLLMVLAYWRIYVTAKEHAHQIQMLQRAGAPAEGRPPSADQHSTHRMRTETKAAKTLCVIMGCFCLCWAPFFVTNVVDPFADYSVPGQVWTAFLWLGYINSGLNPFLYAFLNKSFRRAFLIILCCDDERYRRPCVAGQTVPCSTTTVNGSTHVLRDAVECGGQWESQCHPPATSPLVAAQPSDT

CN1[C@@H]2CC[C@H]1C[C@@H](OC(=O)c1n[nH]c3ccccc13)C2 [(3-α-tropanyl)-1H-indazole-3-carboxylic acid ester]
type of antagonism of cardiac 5-HT4 receptors (cardiac 5-HT4 receptors [1]; conclusion from the preliminary screening results of Table 1): competitive antagonist

CN1C2CCCC1CC(NC(=O)c1nn(C)c3ccccc13)C2 (stereo not drawn) [Granisetron]
pK (-log M equilibrium dissociation constant), blocking potency, Human (force) (cardiac 5-HT4 receptors [2]): ineffective (20 µM)
pK (-log M equilibrium dissociation constant), blocking potency, Porcine (rate) (cardiac 5-HT4 receptors [1]; piglet spontaneously beating right atrium, rate, 37°C, 400 nM (±)-propranolol and 6 µM cocaine present, antagonist incubated at least 1 hr, Granisetron tested at 1 µM, preliminary screening results): ineffective (1 µM)
